Results reported in publication PMC3171734 (2011).

T1: dimethylarginine dimethylaminohydrolase (P. aeruginosa DDAH) (Pseudomonas aeruginosa, UniProt Q9I4E3)
T1 sequence (Q9I4E3 1-254): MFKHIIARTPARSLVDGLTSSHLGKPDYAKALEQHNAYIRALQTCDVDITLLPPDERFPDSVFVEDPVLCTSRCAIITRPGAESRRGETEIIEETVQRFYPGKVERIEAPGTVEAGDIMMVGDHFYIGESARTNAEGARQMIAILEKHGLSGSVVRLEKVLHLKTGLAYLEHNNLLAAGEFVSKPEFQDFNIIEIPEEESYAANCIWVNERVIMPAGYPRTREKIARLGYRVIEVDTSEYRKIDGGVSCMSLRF

B1: dimethylarginine dimethylaminohydrolase (P. aeruginosa DDAH) (Pseudomonas aeruginosa PAO1) (protein)
chain: T1 sequence (Q9I4E3 1-254)

Legend:
human DDAH-1 = human DDAH-1 (Homo sapiens, UniProt O94760); experiment: dose-dependent inhibition of isolated enzyme; format: biochemical
[1] = biological target: T1, dimethylarginine dimethylaminohydrolase (P. aeruginosa DDAH); experiment: dose-dependent inhibition of isolated enzyme; format: biochemical
[2] = substrate: CSC(=N)NCCC[C@H](N)C(=O)O; experiment: steady-state kinetics, DTNB-coupled 384-well assay; format: biochemical, Pseudomonas aeruginosa

Chain of human DDAH-1 (O94760 2-285): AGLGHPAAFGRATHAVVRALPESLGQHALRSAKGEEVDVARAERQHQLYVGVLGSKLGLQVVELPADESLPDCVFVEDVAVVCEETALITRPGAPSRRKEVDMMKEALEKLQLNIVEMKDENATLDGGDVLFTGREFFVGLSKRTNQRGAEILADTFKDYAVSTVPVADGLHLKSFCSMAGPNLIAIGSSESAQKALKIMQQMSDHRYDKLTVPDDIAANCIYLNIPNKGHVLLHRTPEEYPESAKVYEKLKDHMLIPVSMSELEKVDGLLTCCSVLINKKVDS

Row | Molecule | IC50 (human DDAH-1) [nM] | IC50 [1] [nM] | Km [2] [µM]
1 | O=c1c2ccccc2[se]n1-c1ccccc1 [ebselen] | 330 ± 30 | 96 ± 2 | 
2 | B1 |  |  | 22 ± 1
